Results published in patent US20220153754A1 (JANSSEN SCIENCES IRELAND UNLIMITED COMPANY, priority 2019, published 2022).

Tested on: HBV
Test: HBV replication inhibition assay (BDNA assay)
Type: cell-based
Settings: Hepatitis B virus, HepG2.2.15, 144 h, HepG2.2.15 cells, incubated with compound for 6 days, encapsidated HBV DNA from supernatant detected by branched DNA QuantiGene assay
Experimental: HBV replication inhibition by the disclosed compounds were determined in cells infected or transfected with HBV or cells with stably integrated HBV, such as HepG2.2.15 cells (Sells et al. 1987). In this example, HepG2.2.15 cells were maintained in cell culture medium containing 10% fetal bovine serum (FBS), Geneticin, L-glutamine, penicillin and streptomycin. HepG2.2.15 cells were seeded in 96-well plates at a density of 40,000 cells/well and were treated with serially diluted compounds at a final DMSO concentration of 0.5% either alone or in combination by adding drugs in a checker box format. Cells were incubated with compounds for three days, after which medium was removed and fresh medium containing compounds was added to cells and incubated for another three days. At day 6, supernatant was removed and treated with DNase at 37° C. for 60 minutes, followed by enzyme inactivation at 75° C. for 15 minutes. Encapsidated HBV DNA was released from the virions and covalently linked HBV polymerase by incubating in lysis buffer (Affymetrix QS0010) containing 2.5 μg proteinase K at 50° C. for 40 minutes. HBV DNA was denatured by addition of 0.2 M NaOH and detected using a branched DNA (BDNA) QuantiGene assay kit according to manufacturer recommendation (Affymetrix). HBV DNA levels were also quantified using qPCR, based on amplification of encapsidated HBV DNA extraction with QuickExtraction Solution (Epicentre Biotechnologies) and amplification of HBV DNA using HBV specific PCR probes that can hybridize to HBV DNA and a fluorescently labeled probe for quantitation. In addition, cell viability of HepG2.2.15 cells incubated with test compounds alone or in combination was determined by using CellTitre-Glo reagent according to the manufacturer protocol (Promega). The mean background signal from wells containing only culture medium was subtracted from all other samples, and percent inhibition at each compound concentration was calculated by normalizing to signals from HepG2.2.15 cells treated with 0.5% DMSO using equation E1.
where DMSOave is the mean signal calculated from the wells that were treated with DMSO control (0% inhibition control) and Xi is the signal measured from the individual wells. EC50 values, effective concentrations that achieved 50% inhibitory effect, were determined by non-linear fitting using Graphpad Prism software (San Diego, Calif.) and equation E2.
where Y represents percent inhibition values and X represents the logarithm of compound concentrations.
Selected disclosed compounds were assayed in the HBV replication assay (BDNA assay), as described above, and a representative group of these active compounds is shown in Table 3.

Question: How did the EC50 turn out when O=C(Nc1ccc(F)c(C(F)(F)F)c1)N1CCc2nn3c(c2C1)-c1nocc1CC(COCC(F)F)C3 (single isomer, unassigned) [Example 6, (5S*)-5-((2,2-Difluoroethoxy)methyl)-N-(4-fluoro-3-(trifluoromethyl)phenyl)-5,6,9,10-tetrahydro-4H-isoxazolo[3,4-c]pyrido[4′,3′:3,4]pyrazolo[1,5-a]azepine-11(12H)-carboxamide] was run?
Answer: Its EC50 is 0.045 µM.

Question: For O=C(Nc1ccc(F)c(C(F)(F)F)c1)N1CCc2nn3c(c2C1)-c1nocc1C[C@@H](COCC(F)F)C3 (single isomer, unassigned) [Example 8, (5R*)-5-((2,2-Difluoroethoxy)methyl)-N-(4-fluoro-3-(trifluoromethyl)phenyl)-5,6,9,10-tetrahydro-4H-isoxazolo[3,4-c]pyrido[4′,3′:3,4]pyrazolo[1,5-a]azepine-11(12H)-carboxamide], which EC50 is on record?
Answer: The EC50 was 0.026 µM.

Question: With C=C1Cc2conc2-c2c3c(nn2C1)CCN(C(=O)Nc1ccc(F)c(C#N)c1)C3 [Example 1, N-(3-Cyano-4-fluorophenyl)-5-methylene-5,6,9,10-tetrahydro-4H-isoxazolo[3,4-c]pyrido[4′,3′:3,4]pyrazolo[1,5-a]azepine-11(12H)-carboxamide] as the compound, how does the EC50 read?
Answer: Its EC50 is 0.064 µM.

Question: With C=C1Cc2conc2-c2c3c(nn2C1)CCN(C(=O)Nc1ccc(F)c(C(F)(F)F)c1)C3 [Example 2, N-(4-Fluoro-3-(trifluoromethyl)phenyl)-5-methylene-5,6,9,10-tetrahydro-4H-isoxazolo[3,4-c]pyrido[4′,3′:3,4]pyrazolo[1,5-a]azepine-11(12H)-carboxamide] as the compound, how does the EC50 read?
Answer: Its EC50 is 0.075 µM.

Question: With N#Cc1cc(NC(=O)N2CCc3nn4c(c3C2)-c2nocc2CC(CO)C4)ccc1F (stereo not drawn) [Example 3, N-(3-Cyano-4-fluorophenyl)-5-(hydroxymethyl)-5,6,9,10-tetrahydro-4H-isoxazolo[3,4-c]pyrido[4′,3′:3,4]pyrazolo[1,5-a]azepine-11(12H)-carboxamide] as the compound, how does the EC50 read?
Answer: The EC50 was 0.023 µM.

Question: For O=C(Nc1ccc(F)c(C(F)(F)F)c1)N1CCc2nn3c(c2C1)-c1nocc1CC(CO)C3 (stereo not drawn) [Example 4, N-(4-Fluoro-3-(trifluoromethyl)phenyl)-5-(hydroxymethyl)-5,6,9,10-tetrahydro-4H-isoxazolo[3,4-c]pyrido[4′,3′:3,4]pyrazolo[1,5-a]azepine-11(12H)-carboxamide], which EC50 is on record?
Answer: Its EC50 is 0.057 µM.

Question: Which EC50 does the source give for C=C1Cc2cnoc2-c2c3c(nn2C1)CCN(C(=O)Nc1ccc(F)c(C#N)c1)C3 [Example 9, N-(3-Cyano-4-fluorophenyl)-5-methylene-5,6,9,10-tetrahydro-4H-isoxazolo[5,4-c]pyrido[4′,3′:3,4]pyrazolo[1,5-a]azepine-11(12H)-carboxamide] here?
Answer: Its EC50 is 0.8 µM.

Question: C=C1Cc2cnoc2-c2c3c(nn2C1)CCN(C(=O)Nc1ccc(F)c(C(F)(F)F)c1)C3 [Example 10, N-(4-Fluoro-3-(trifluoromethyl)phenyl)-5-methylene-5,6,9,10-tetrahydro-4H-isoxazolo[5,4-c]pyrido[4′,3′:3,4]pyrazolo[1,5-a]azepine-11(12H)-carboxamide] was tested. Which EC50 did it give?
Answer: The EC50 was 0.35 µM.

Question: N#Cc1cc(NC(=O)N2CCc3nn4c(c3C2)-c2nocc2CC(O)C4)ccc1F (stereo not drawn) [Example 11, N-(3-Cyano-4-fluorophenyl)-5-hydroxy-5,6,9,10-tetrahydro-4H-isoxazolo[3,4-c]pyrido[4′,3′:3,4]pyrazolo[1,5-a]azepine-11(12H)-carboxamide] was tested. Which EC50 did it give?
Answer: The EC50 was 0.043 µM.

Question: CC1Cc2conc2-c2c3c(nn2C1)CCN(C(=O)Nc1ccc(F)c(C(F)(F)F)c1)C3 (stereo not drawn) [Example 12, N-(4-Fluoro-3-(trifluoromethyl)phenyl)-5-methyl-5,6,9,10-tetrahydro-4H-isoxazolo[3,4-c]pyrido[4′,3′:3,4]pyrazolo[1,5-a]azepine-11(12H)-carboxamide] was tested. Which EC50 did it give?
Answer: The EC50 was 0.052 µM.

Question: How did the EC50 turn out when CC1Cc2conc2-c2c3c(nn2C1)CCN(C(=O)Nc1ccc(F)c(C#N)c1)C3 (stereo not drawn) [Example 13, N-(3-Cyano-4-fluorophenyl)-5-methyl-5,6,9,10-tetrahydro-4H-isoxazolo[3,4-c]pyrido[4′,3′:3,4]pyrazolo[1,5-a]azepine-11(12H)-carboxamide] was run?
Answer: The EC50 was 0.052 µM.

Question: For C[C@@H]1Cc2nn3c(c2CN1C(=O)Nc1ccc(F)c(C#N)c1)-c1oncc1CCC3 [Example 14, (10R)—N-(3-Cyano-4-fluorophenyl)-10-methyl-5,6,9,10-tetrahydro-4H-isoxazolo[5,4-c]pyrido[4′,3′:3,4]pyrazolo[1,5-a]azepine-11(12H)-carboxamide], which EC50 is on record?
Answer: Its EC50 is 0.059 µM.

Question: C[C@@H]1Cc2nn3c(c2CN1C(=O)Nc1ccc(F)c(C(F)(F)F)c1)-c1oncc1CCC3 [Example 15, (10R)—N-(4-Fluoro-3-(trifluoromethyl)phenyl)-10-methyl-5,6,9,10-tetrahydro-4H-isoxazolo[5,4-c]pyrido[4′,3′:3,4]pyrazolo[1,5-a]azepine-11(12H)-carboxamide] was tested. Which EC50 did it give?
Answer: The EC50 was 0.083 µM.

Question: For C[C@@H]1Cc2nn3c(c2CN1C(=O)Nc1ccc(F)c(C#N)c1)-c1ncccc1CCC3 [Example 16, (11R)—N-(3-Cyano-4-fluorophenyl)-11-methyl-6,7,10,11-tetrahydro-5H-pyrido[2,3-c]pyrido[4′,3′:3,4]pyrazolo[1,5-a]azepine-12(13H)-carboxamide], which EC50 is on record?
Answer: Its EC50 is 0.33 µM.

Question: With C[C@@H]1Cc2nn3c(c2CN1C(=O)Nc1ccc(F)c(C(F)(F)F)c1)-c1ncccc1CCC3 [Example 17, (11R)—N-(4-Fluoro-3-(trifluoromethyl)phenyl)-11-methyl-6,7,10,11-tetrahydro-5H-pyrido[2,3-c]pyrido[4′,3′:3,4]pyrazolo[1,5-a]azepine-12(13H)-carboxamide] as the compound, how does the EC50 read?
Answer: Its EC50 is 0.22 µM.

Question: C[C@@H]1Cc2nn3c(c2CN1C(=O)Nc1ccc(F)c(C#N)c1)-c1nocc1CCC3 [Example 18, (10R)—N-(3-Cyano-4-fluorophenyl)-10-methyl-5,6,9,10-tetrahydro-4H-isoxazolo[3,4-c]pyrido[4′,3′:3,4]pyrazolo[1,5-a]azepine-11(12H)-carboxamide] was tested. Which EC50 did it give?
Answer: Its EC50 is 0.015 µM.

Question: C[C@@H]1Cc2nn3c(c2CN1C(=O)Nc1ccc(F)c(C(F)(F)F)c1)-c1nocc1CCC3 [Example 19, (10R)—N-(4-Fluoro-3-(trifluoromethyl)phenyl)-10-methyl-5,6,9,10-tetrahydro-4H-isoxazolo[3,4-c]pyrido[4′,3′:3,4]pyrazolo[1,5-a]azepine-11(12H)-carboxamide] was tested. Which EC50 did it give?
Answer: The EC50 was 0.027 µM.

Question: With O=C(Nc1ccc(F)c(Cl)c1)N1CCc2nn3c(c2C1)-c1nncn1CCC3 [Example 20, N-(3-Chloro-4-fluorophenyl)-6,7,10,11-tetrahydro-5H-pyrido[4′,3′:3,4]-pyrazolo[1,5-a][1,2,4]triazolo[3,4-c][1,4]diazepine-12(13H)-carboxamide] as the compound, how does the EC50 read?
Answer: The EC50 was 2 µM.

Question: For Cc1nnc2n1CCCn1nc3c(c1-2)CN(C(=O)Nc1ccc(F)c(Cl)c1)CC3 [Example 21, N-(3-Chloro-4-fluorophenyl)-3-methyl-6,7,10,11-tetrahydro-5H-pyrido-[4′,3′:3,4]pyrazolo[1,5-a][1,2,4]triazolo[3,4-c][1,4]diazepine-12(13H)-carboxamide], which EC50 is on record?
Answer: Its EC50 is 2.7 µM.

Question: With C[C@@H]1Cc2nn3c(c2CN1C(=O)Nc1ccc(F)c(Cl)c1)-c1nncn1CCC3 [Example 22, (R)—N-(3-Chloro-4-fluorophenyl)-11-methyl-6,7,10,11-tetrahydro-5H-pyrido[4′,3′:3,4]pyrazolo[1,5-a][1,2,4]triazolo[3,4-c][1,4]diazepine-12(13H)-carboxamide] as the compound, how does the EC50 read?
Answer: Its EC50 is greater than 4 µM.

Question: Cc1nnc2n1CCCn1nc3c(c1-2)CN(C(=O)Nc1ccc(F)c(Cl)c1)[C@H](C)C3 [Example 23] was tested. Which EC50 did it give?
Answer: The EC50 was greater than 4 µM.
